The experiment has as its target T1, EGFR (Homo sapiens, UniProt P00533).
T1 construct: Add 7 ug A431 cell lysate per well (EGFR source); endogenous in cells; host or cells: A431
The experiment can be described thus: EGFR ELISA assay (in vitro kinase activity, EGFR captured from A431 cell lysate). Format: biochemical. Details: concentration or dose not given beside the values. The essentials:
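Receptor autophosphorylation was read by ELISA: anti-phosphotyrosine serum and an HRP-linked secondary with ABTS substrate, absorbance at 410 nm (reference 630 nm). The reaction ran 5 min with 3 µM ATP and 5 mM MnCl2 and was quenched by 20 mM EDTA. Compounds were first incubated 30 min with antibody-captured EGFR from A431 cell lysate.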
On the technique in general: ELISA stands for enzyme-linked immunosorbent assay.
T1 sequence (P00533 25-1210): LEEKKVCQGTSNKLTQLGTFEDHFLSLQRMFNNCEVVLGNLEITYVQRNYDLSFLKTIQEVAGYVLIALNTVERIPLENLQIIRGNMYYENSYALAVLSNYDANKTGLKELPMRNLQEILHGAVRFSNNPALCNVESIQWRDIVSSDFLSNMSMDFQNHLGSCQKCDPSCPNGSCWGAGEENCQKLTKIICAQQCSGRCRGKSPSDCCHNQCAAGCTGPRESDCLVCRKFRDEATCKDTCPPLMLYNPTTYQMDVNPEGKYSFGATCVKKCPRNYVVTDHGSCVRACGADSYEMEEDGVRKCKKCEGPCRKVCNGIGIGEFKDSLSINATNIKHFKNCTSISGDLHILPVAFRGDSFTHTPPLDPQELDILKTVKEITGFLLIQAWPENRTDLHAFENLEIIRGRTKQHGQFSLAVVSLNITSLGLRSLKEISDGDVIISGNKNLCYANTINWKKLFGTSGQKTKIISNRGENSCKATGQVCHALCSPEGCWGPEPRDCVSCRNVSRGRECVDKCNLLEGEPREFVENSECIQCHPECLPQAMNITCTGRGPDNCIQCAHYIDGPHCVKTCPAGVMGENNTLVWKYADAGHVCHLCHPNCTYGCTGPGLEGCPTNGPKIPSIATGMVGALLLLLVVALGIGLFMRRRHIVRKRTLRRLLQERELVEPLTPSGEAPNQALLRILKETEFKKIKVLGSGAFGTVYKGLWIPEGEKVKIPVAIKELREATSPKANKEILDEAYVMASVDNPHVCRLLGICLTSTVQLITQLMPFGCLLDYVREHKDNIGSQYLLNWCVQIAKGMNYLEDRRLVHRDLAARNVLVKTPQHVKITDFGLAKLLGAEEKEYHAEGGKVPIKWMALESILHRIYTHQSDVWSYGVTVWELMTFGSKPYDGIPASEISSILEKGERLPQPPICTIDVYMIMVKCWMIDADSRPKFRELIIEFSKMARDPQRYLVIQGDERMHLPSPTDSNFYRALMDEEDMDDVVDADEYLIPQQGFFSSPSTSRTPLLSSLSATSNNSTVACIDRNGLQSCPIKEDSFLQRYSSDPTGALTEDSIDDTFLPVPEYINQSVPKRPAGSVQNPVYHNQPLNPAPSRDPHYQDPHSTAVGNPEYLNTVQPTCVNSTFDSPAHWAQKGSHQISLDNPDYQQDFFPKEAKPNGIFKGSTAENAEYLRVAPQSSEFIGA
As for `Cc1c(Br)ccc2c1C(=Cc1c(F)cc(F)cc1F)C(=O)N2` [10720/C02], the “Biochem EGFR %Inhibition” value came out at 23.5%.

Take `Cc1c(Br)ccc2c1C(=Cc1ncc[nH]1)C(=O)N2` [10720/C11]: the “Biochem EGFR %Inhibition” value is -21.9%.

For the compound `O=C1Nc2c(Br)cc(Br)cc2C1=Cc1c(F)cc(F)cc1F` [10720/A02], the “Biochem EGFR %Inhibition” value is listed as 11.3%.

On to `Cc1c(Br)ccc2c1C(=Cc1cccs1)C(=O)N2` [10717/C03], for which the “Biochem EGFR %Inhibition” value worked out at 18.0%.

Regarding `COc1cc(OC)c(C=C2C(=O)Nc3ccc(S(=O)(=O)Nc4ccc(C(F)(F)F)cc4)cc32)c(OC)c1` [10719/E06], the “Biochem EGFR %Inhibition” value is -42.0%.

Take `CNS(=O)(=O)c1ccc2c(c1)C(=Cc1ccc(O)c(O)c1)C(=O)N2` [10719/D03]: the “Biochem EGFR %Inhibition” value is 95.7%.

As for `CNS(=O)(=O)c1ccc2c(c1)C(=Cc1ccc(OC)cc1OC)C(=O)N2` [10719/D04], the “Biochem EGFR %Inhibition” value is given as 15.3%.

As for `O=C1Nc2c(Br)cc(Br)cc2C1=Cc1ncc[nH]1` [10720/A11], the “Biochem EGFR %Inhibition” value is reported as -23.2%.

Turning to `Cc1ccc(C=C2C(=O)Nc3ccc(I)cc32)s1` [10717/B07], the “Biochem EGFR %Inhibition” value is 58.3%.

In the case of `O=C1Nc2ccc(CCCl)cc2C1=Cc1cccc([N+](=O)[O-])c1` [10719/G10], the “Biochem EGFR %Inhibition” value is -27.6%.

On to `CNS(=O)(=O)c1ccc2c(c1)C(=Cc1ccc(O)cc1OC)C(=O)N2` [10720/D03], for which the “Biochem EGFR %Inhibition” value stood at 0.9%.

Consider `COc1ccc(C=C2C(=O)Nc3ccc(S(=O)(=O)N4CCOCC4)cc32)c(OC)c1` [10719/F04], for which the “Biochem EGFR %Inhibition” value was -6.0%.

For the compound `CNS(=O)(=O)c1ccc2c(c1)C(=Cc1cccc([N+](=O)[O-])c1)C(=O)N2` [10719/D10], the “Biochem EGFR %Inhibition” value is on record as -11.8%.

`COc1ccc(C=C2C(=O)Nc3ccc(CCCl)cc32)c(OC)c1` [10719/G04]: the “Biochem EGFR %Inhibition” value is recorded as -4.7%.

Turning to `O=C1Nc2ccc(CCCl)cc2C1=Cc1ccc(O)c(O)c1` [10719/G03], the “Biochem EGFR %Inhibition” value is given as 89.5%.

For `CN(C)c1ccc(C=C2C(=O)Nc3ccc(CCCl)cc32)cc1` [10719/G08], the “Biochem EGFR %Inhibition” value worked out at 65.4%.

For `CCc1c(C)[nH]c(C=C2C(=O)Nc3ccc(S(=O)(=O)N4CCOCC4)cc32)c1C` [10719/F05], the “Biochem EGFR %Inhibition” value was found to be 35.0%.

In the case of `CSc1ccc(C=C2C(=O)Nc3ccc(I)cc32)s1` [10720/B07], the “Biochem EGFR %Inhibition” value worked out at 52.0%.

In the case of `COc1ccc(O)c(C=C2C(=O)Nc3c(Br)cc(Br)cc32)c1` [10720/A10], the “Biochem EGFR %Inhibition” value is reported as -2.7%.

For `COc1ccc(C=C2C(=O)Nc3c(Br)cc(Br)cc32)cc1OC` [10720/A04], the “Biochem EGFR %Inhibition” value is recorded as -1.8%.

As to `O=C1Nc2ccc(S(=O)(=O)Nc3ccc(C(F)(F)F)cc3)cc2C1=Cc1ccc(F)cc1C(F)(F)F` [10719/E11], the “Biochem EGFR %Inhibition” value is listed as -51.8%.

As to `CCc1c(C)[nH]c(C=C2C(=O)Nc3ccc(CCCl)cc32)c1C` [10719/G05], the “Biochem EGFR %Inhibition” value worked out at 4.0%.

Take `CN(C)c1ccc(C=C2C(=O)Nc3ccc(S(=O)(=O)Nc4ccc(C(F)(F)F)cc4)cc32)cc1` [10719/E08]: the “Biochem EGFR %Inhibition” value stood at 36.8%.

Take `O=C1Nc2ccc(CCCl)cc2C1=Cc1ccc(F)cc1Cl` [10719/G09]: the “Biochem EGFR %Inhibition” value is recorded as -32.8%.

Turning to `CNS(=O)(=O)c1ccc2c(c1)C(=Cc1ccc(F)cc1Cl)C(=O)N2` [10719/D09], the “Biochem EGFR %Inhibition” value is -3.1%.

`COc1ccc(C=C2C(=O)Nc3ccc(Br)c(C)c32)cc1OC` [10720/C04]: the “Biochem EGFR %Inhibition” value is -13.1%.

With `COc1cc(O)ccc1C=C1C(=O)Nc2ccc(I)cc21` [10720/B03], the “Biochem EGFR %Inhibition” value is given as 32.3%.

Turning to `O=C1Nc2ccc(I)cc2C1=Cc1ccccc1` [10720/B06], the “Biochem EGFR %Inhibition” value came out at 21.2%.

Take `Cc1[nH]c(C=C2C(=O)Nc3ccc(I)cc32)c(Br)c1Br` [10717/B11]: the “Biochem EGFR %Inhibition” value was 82.7%.

Regarding `O=C1Nc2ccc(S(=O)(=O)N3CCOCC3)cc2C1=Cc1ccc(F)cc1C(F)(F)F` [10719/F11], the “Biochem EGFR %Inhibition” value is -66.3%.

In the case of `O=C1Nc2ccc(S(=O)(=O)N3CCOCC3)cc2C1=Cc1ccc(O)c(O)c1` [10719/F03], the “Biochem EGFR %Inhibition” value was -30.8%.

Take `CCOc1ccc(C=C2C(=O)Nc3ccc(S(=O)(=O)N4CCOCC4)cc32)cc1OC` [10719/F02]: the “Biochem EGFR %Inhibition” value worked out at 14.8%.

Consider `COc1cccc(O)c1C=C1C(=O)Nc2ccc(I)cc21` [10717/B10], for which the “Biochem EGFR %Inhibition” value turned out to be 16.1%.

Take `Cc1cc(O)cc(O)c1C=C1C(=O)Nc2ccc(Br)c(C)c21` [10720/C08]: the “Biochem EGFR %Inhibition” value is -1.1%.

With `CCOc1ccc(C=C2C(=O)Nc3ccc(CCCl)cc32)cc1OC` [10719/G02], the “Biochem EGFR %Inhibition” value is -12.2%.

With `Cc1c(Br)ccc2c1C(=Cc1ccccc1)C(=O)N2` [10720/C06], the “Biochem EGFR %Inhibition” value is recorded as -9.7%.

Turning to `COc1ccc(O)c(C=C2C(=O)Nc3ccc(I)cc32)c1` [10720/B10], the “Biochem EGFR %Inhibition” value stood at 50.2%.

In the case of `CCOc1ccc(C=C2C(=O)Nc3ccc(S(=O)(=O)NC)cc32)cc1OC` [10719/D02], the “Biochem EGFR %Inhibition” value turned out to be 9.8%.

As to `O=C1Nc2c(Br)cc(Br)cc2C1=Cc1ccccc1` [10720/A06], the “Biochem EGFR %Inhibition” value was determined as 44.7%.

As to `Cc1cc(O)cc(O)c1C=C1C(=O)Nc2c(Br)cc(Br)cc21` [10720/A08], the “Biochem EGFR %Inhibition” value is -23.2%.

As for `CN(C)c1ccc(C=C2C(=O)Nc3ccc(S(=O)(=O)N4CCOCC4)cc32)cc1` [10719/F08], the “Biochem EGFR %Inhibition” value is listed as 90.9%.

For `Cc1c(Br)ccc2c1C(=Cc1ccccc1O)C(=O)N2` [10720/C05], the “Biochem EGFR %Inhibition” value is listed as -15.3%.

Take `CSc1ccc(C=C2C(=O)Nc3ccc(Br)c(C)c32)s1` [10720/C07]: the “Biochem EGFR %Inhibition” value is on record as -25.4%.

On to `CCOc1cc(C=C2C(=O)Nc3ccc(I)cc32)ccc1O` [10720/B09], for which the “Biochem EGFR %Inhibition” value is listed as 37.6%.

Take `COc1cc(OC)c(C=C2C(=O)Nc3ccc(S(=O)(=O)N4CCOCC4)cc32)c(OC)c1` [10719/F06]: the “Biochem EGFR %Inhibition” value is given as -26.0%.

As to `O=C1Nc2ccc(I)cc2C1=Cc1ccccc1O` [10720/B05], the “Biochem EGFR %Inhibition” value is 58.4%.

As for `O=C1Nc2ccc(S(=O)(=O)N3CCOCC3)cc2C1=Cc1cccc([N+](=O)[O-])c1` [10719/F10], the “Biochem EGFR %Inhibition” value is reported as -17.7%.

As to `CNS(=O)(=O)c1ccc2c(c1)C(=Cc1ccc(N(C)C)cc1)C(=O)N2` [10719/D08], the “Biochem EGFR %Inhibition” value is -12.2%.

Turning to `CCOc1ccccc1C=C1C(=O)Nc2ccc(Br)c(C)c21` [10717/C02], the “Biochem EGFR %Inhibition” value was -0.4%.

Take `O=C1Nc2ccc(S(=O)(=O)N3CCOCC3)cc2C1=Cc1ccc(F)cc1Cl` [10719/F09]: the “Biochem EGFR %Inhibition” value is given as -17.7%.

As for `COc1cc(OC)c(C=C2C(=O)Nc3ccc(CCCl)cc32)c(OC)c1` [10719/G06], the “Biochem EGFR %Inhibition” value is reported as -45.7%.

With `CNS(=O)(=O)c1ccc2c(c1)C(=Cc1c(F)cc(F)cc1F)C(=O)N2` [10720/D02], the “Biochem EGFR %Inhibition” value stood at 11.1%.

As to `O=C1Nc2ccc(CCCl)cc2C1=Cc1ccc(O)cc1` [10719/G07], the “Biochem EGFR %Inhibition” value was -8.1%.

Consider `O=C1Nc2ccc(S(=O)(=O)Nc3ccc(C(F)(F)F)cc3)cc2C1=Cc1ccc(F)cc1Cl` [10719/E09], for which the “Biochem EGFR %Inhibition” value is on record as -33.1%.

With `O=C1Nc2ccc(CCCl)cc2C1=Cc1ccc(F)cc1C(F)(F)F` [10719/G11], the “Biochem EGFR %Inhibition” value is listed as -44.1%.

Take `CCc1c(C)[nH]c(C=C2C(=O)Nc3ccc(S(=O)(=O)Nc4ccc(C(F)(F)F)cc4)cc32)c1C` [10719/E05]: the “Biochem EGFR %Inhibition” value was determined as 21.2%.

For `O=C1Nc2ccc(S(=O)(=O)Nc3ccc(C(F)(F)F)cc3)cc2C1=Cc1ccc(O)c(O)c1` [10719/E03], the “Biochem EGFR %Inhibition” value turned out to be 73.0%.

For the compound `CCOc1ccc(C=C2C(=O)Nc3ccc(S(=O)(=O)Nc4ccc(C(F)(F)F)cc4)cc32)cc1OC` [10719/E02], the “Biochem EGFR %Inhibition” value was 40.0%.

With `COc1cc(O)ccc1C=C1C(=O)Nc2ccc(Br)c(C)c21` [10720/C03], the “Biochem EGFR %Inhibition” value came to 0.9%.

As for `O=C1Nc2ccc(I)cc2C1=Cc1ncc[nH]1` [10720/B11], the “Biochem EGFR %Inhibition” value was found to be 22.4%.

With `O=C1Nc2ccc(S(=O)(=O)Nc3ccc(C(F)(F)F)cc3)cc2C1=Cc1ccc(O)cc1` [10719/E07], the “Biochem EGFR %Inhibition” value is -18.4%.

In the case of `O=C1Nc2ccc(I)cc2C1=Cc1ccc(Br)cc1` [10717/B08], the “Biochem EGFR %Inhibition” value is 60.5%.

For `O=C1Nc2ccc(I)cc2C1=Cc1c(F)cc(F)cc1F` [10720/B02], the “Biochem EGFR %Inhibition” value came out at 18.4%.

For the compound `Cc1c(Br)ccc2c1C(=Cc1ccc(F)cc1C(F)(F)F)C(=O)N2` [10719/C11], the “Biochem EGFR %Inhibition” value is -25.7%.

Turning to `CNS(=O)(=O)c1ccc2c(c1)C(=Cc1ccc(O)cc1)C(=O)N2` [10719/D07], the “Biochem EGFR %Inhibition” value was determined as 13.7%.

Turning to `Cc1c(Br)ccc2c1C(=Cc1cccc([N+](=O)[O-])c1)C(=O)N2` [10719/C10], the “Biochem EGFR %Inhibition” value amounted to 10.7%.

`CSc1ccc(C=C2C(=O)Nc3c(Br)cc(Br)cc32)s1` [10720/A07]: the “Biochem EGFR %Inhibition” value was determined as 42.5%.

For `CCOc1cc(C=C2C(=O)Nc3ccc(Br)c(C)c32)ccc1O` [10720/C09], the “Biochem EGFR %Inhibition” value came to 44.7%.

With `O=C1Nc2ccc(S(=O)(=O)N3CCOCC3)cc2C1=Cc1ccc(O)cc1` [10719/F07], the “Biochem EGFR %Inhibition” value was 20.1%.

As for `COc1ccc(C=C2C(=O)Nc3ccc(I)cc32)cc1OC` [10720/B04], the “Biochem EGFR %Inhibition” value is on record as 50.5%.

Regarding `O=C1Nc2c(Br)cc(Br)cc2C1=Cc1ccccc1O` [10720/A05], the “Biochem EGFR %Inhibition” value is listed as -4.4%.

As for `CNS(=O)(=O)c1ccc2c(c1)C(=Cc1c(OC)cc(OC)cc1OC)C(=O)N2` [10719/D06], the “Biochem EGFR %Inhibition” value is on record as -12.2%.

`O=C1Nc2ccc(S(=O)(=O)Nc3ccc(C(F)(F)F)cc3)cc2C1=Cc1cccc([N+](=O)[O-])c1` [10719/E10]: the “Biochem EGFR %Inhibition” value was -32.4%.

Source of the values: patent EP1247803A2, “Indolinone compounds suitable for modulation of protein kinases” (Sugen, Inc., priority 1996, dated 1998).
